Results as given in PubChem BioAssay AID256 (DTP/NCI, 2004).
“And” between values parts separate entries of the source, which are not always exact repeats. Equal values may be shown once. Toxic doses and inconclusive results are not listed.

Test system: CD2F1 mice, L1210 leukemia ip, survival T/C
Assay: NCI In Vivo Anticancer Drug Screen. Data for tumor model L1210 Leukemia (intraperitoneal) in CD2F1 (CDF1) mice
Details: higher = longer survival
Procedure, shortened: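 Ratio T/C, where T is the treated-group value and C the vehicle-dosed control value, from mice implanted with a transplantable tumor.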

O=C1c2ccccc2C(=O)c2c(NCCNCCO)ccc(NCCNCCO)c21
T/C (endpoint: mean survival time, dose: 64.0 mg/kg/injection, schedule: Q01DX005 (oral), vehicle: acid diluted with saline): 92 % of control | T/C (endpoint: mean survival time, dose: 64.0 mg/kg/injection, schedule: Q01DX009 (ip), vehicle: water): 90 % of control | T/C (endpoint: mean survival time, dose: 64.0 mg/kg/injection, schedule: Q04DX003 (ip), vehicle: saline): 289 % of control | T/C (endpoint: mean survival time, dose: 90.0 mg/kg/injection, schedule: Q01DX001 (ip), vehicle: saline): 182 % of control | T/C (endpoint: mean survival time, dose: 128.0 mg/kg/injection, schedule: Q01DX005 (oral), vehicle: acid diluted with saline): 100 % of control | T/C (endpoint: mean survival time, dose: 128.0 mg/kg/injection, schedule: Q04DX003 (ip), vehicle: saline): 247 % of control | T/C (endpoint: mean survival time, dose: 150.0 mg/kg/injection, schedule: Q01DX001 (ip), vehicle: saline): 221 % of control and 98 % of control | T/C (endpoint: median survival time, dose: 0.25 mg/kg/injection, schedule: Q01DX005 (iv), vehicle: clinical formulation): 97 % of control | T/C (endpoint: median survival time, dose: 0.25 mg/kg/injection, schedule: Q01DX005 (iv), vehicle: water): 102 % of control | T/C (endpoint: median survival time, dose: 0.25 mg/kg/injection, schedule: Q01DX009 (ip), vehicle: water): 118 % of control | T/C (endpoint: median survival time, dose: 0.5 mg/kg/injection, schedule: Q01DX005 (iv), vehicle: clinical formulation): 97 % of control | T/C (endpoint: median survival time, dose: 0.5 mg/kg/injection, schedule: Q01DX005 (iv), vehicle: water): 98 % of control | T/C (endpoint: median survival time, dose: 0.5 mg/kg/injection, schedule: Q01DX009 (ip), vehicle: clinical formulation): 121 % of control | T/C (endpoint: median survival time, dose: 1.0 mg/kg/injection, schedule: Q01DX005 (iv), vehicle: clinical formulation): 102 % of control | T/C (endpoint: median survival time, dose: 1.0 mg/kg/injection, schedule: Q01DX005 (iv), vehicle: water): 97 % of control | T/C (endpoint: median survival time, dose: 2.0 mg/kg/injection, schedule: Q01DX005 (iv), vehicle: clinical formulation): 97 % of control | T/C (endpoint: median survival time, dose: 2.0 mg/kg/injection, schedule: Q01DX005 (iv), vehicle: water): 102 % of control | T/C (endpoint: median survival time, dose: 2.0 mg/kg/injection, schedule: Q01DX009 (ip), vehicle: Klucel (hydroxypropylcellulose) (HPC)): 151 % of control | T/C (endpoint: median survival time, dose: 4.0 mg/kg/injection, schedule: Q01DX005 (iv), vehicle: clinical formulation): 115 % of control | T/C (endpoint: median survival time, dose: 4.0 mg/kg/injection, schedule: Q01DX009 (ip), vehicle: Klucel (hydroxypropylcellulose) (HPC)): 197 % of control | T/C (endpoint: median survival time, dose: 4.0 mg/kg/injection, schedule: Q01DX009 (ip), vehicle: clinical formulation): 160 % of control | T/C (endpoint: median survival time, dose: 4.0 mg/kg/injection, schedule: Q01DX009 (ip), vehicle: water): 156 % of control | T/C (endpoint: median survival time, dose: 4.0 mg/kg/injection, schedule: Q01DX009 (sc), vehicle: Klucel (hydroxypropylcellulose) (HPC)): 120 % of control | T/C (endpoint: median survival time, dose: 4.0 mg/kg/injection, schedule: Q01DX009 (sc), vehicle: water): 112 % of control | T/C (endpoint: median survival time, dose: 8.0 mg/kg/injection, schedule: Q01DX009 (ip), vehicle: Klucel (hydroxypropylcellulose) (HPC)): 156 % of control and 182 % of control | T/C (endpoint: median survival time, dose: 8.0 mg/kg/injection, schedule: Q01DX009 (ip), vehicle: clinical formulation): 196 % of control | T/C (endpoint: median survival time, dose: 8.0 mg/kg/injection, schedule: Q01DX009 (ip), vehicle: water): 177 % of control | T/C (endpoint: median survival time, dose: 16.0 mg/kg/injection, schedule: Q01DX005 (iv), vehicle: water): 155 % of control | T/C (endpoint: median survival time, dose: 16.0 mg/kg/injection, schedule: Q01DX005 (oral), vehicle: Klucel (hydroxypropylcellulose) (HPC)): 104 % of control | T/C (endpoint: median survival time, dose: 16.0 mg/kg/injection, schedule: Q01DX009 (ip), vehicle: Klucel (hydroxypropylcellulose) (HPC)): 170 % of control and 188 % of control | T/C (endpoint: median survival time, dose: 16.0 mg/kg/injection, schedule: Q01DX009 (ip), vehicle: clinical formulation): 238 % of control | T/C (endpoint: median survival time, dose: 16.0 mg/kg/injection, schedule: Q01DX009 (ip), vehicle: water): 262 % of control | T/C (endpoint: median survival time, dose: 16.0 mg/kg/injection, schedule: Q01DX009 (sc), vehicle: Klucel (hydroxypropylcellulose) (HPC)): 174 % of control | T/C (endpoint: median survival time, dose: 16.0 mg/kg/injection, schedule: Q01DX009 (sc), vehicle: water): 164 % of control | T/C (endpoint: median survival time, dose: 32.0 mg/kg/injection, schedule: Q01DX005 (iv), vehicle: clinical formulation): 180 % of control | T/C (endpoint: median survival time, dose: 32.0 mg/kg/injection, schedule: Q01DX005 (iv), vehicle: water): 174 % of control | T/C (endpoint: median survival time, dose: 32.0 mg/kg/injection, schedule: Q01DX005 (oral), vehicle: Klucel (hydroxypropylcellulose) (HPC)): 104 % of control | T/C (endpoint: median survival time, dose: 32.0 mg/kg/injection, schedule: Q01DX009 (ip), vehicle: Klucel (hydroxypropylcellulose) (HPC)): 197 % of control and 365 % of control | T/C (endpoint: median survival time, dose: 32.0 mg/kg/injection, schedule: Q01DX009 (ip), vehicle: clinical formulation): 115 % of control | T/C (endpoint: median survival time, dose: 32.0 mg/kg/injection, schedule: Q01DX009 (ip), vehicle: water): 101 % of control | T/C (endpoint: median survival time, dose: 32.0 mg/kg/injection, schedule: Q01DX009 (sc), vehicle: water): 172 % of control | T/C (endpoint: median survival time, dose: 64.0 mg/kg/injection, schedule: Q01DX009 (sc), vehicle: Klucel (hydroxypropylcellulose) (HPC)): 96 % of control | T/C (endpoint: median survival time, dose: 64.0 mg/kg/injection, schedule: Q01DX009 (sc), vehicle: water): 101 % of control | T/C (endpoint: median survival time, dose: 1024.0 mg/kg/injection, schedule: Q01DX005 (oral), vehicle: Klucel (hydroxypropylcellulose) (HPC)): 91 % of control
